Results as given in patent US20230277494A1, “TRANS-CROCETIN COMPOSITIONS AND TREATMENT REGIMENS” (priority 2020, published 2023).

What was measured:
[1] = human, in vivo; cited from earlier work
[2] = mouse, in vivo, iv
[3] = diffusion of oxygen in plasma, FIG. 12; cited from earlier work
[4] = Phase 2 clinical study of liposomal trans-crocetin, pharmacokinetics; conditions: human, in vivo
Description: A phase 2 clinical study was initiated to assess the safety and efficacy of liposomal trans-crocetin in patients with acute respiratory distress syndrome due to COVID-19 disease. This was an open label phase II study of treatment with liposomal trans-crocetin in patients who experience severe acute respiratory distress syndrome (ARDS) and were receiving artificial respiratory support due to COVID-19. The purpose of this study was to evaluate the improvement in PaO2/FiO2 by more than 25% in two cohorts of patients treated liposomal trans-crocetin. In the first cohort, patients received trans-crocetin at a dose of 0.25 mg/kg administered as intravenous (IV) bolus every 3 hours. The second cohort was treated by a liposomal formulation containing trans-crocetin. […] Pharmacokinetic assessment was carried out to identify an optimal dose and schedule. […] Secondary outcome measures included (1) proportion of patients with a PaO2/FiO2 ratio above 200 mm Hg (Time Frame: 24, 48 and 72 hours), and (2) all cause mortality (Time Frame: 28 days).
The primary purpose of this study was to determine a safe dosing regimen of liposomal trans-crocetin and to assess preliminary efficacy as measured by improvement in PaO2/FiO2 by more than 25% in patients treated with liposome encapsulated trans-crocetin, as well as safety and the pharmacokinetic profile of liposome encapsulated trans-crocetin. […]

Compound	safety in clinical trials [1]	Cmax [2] [µg/mL]	improvement in diffusion capacity [3] [%]	AUC and Cmax across a wide range of body weights [4]
CC(/C=C/C=C(\C)C(=O)[O-])=C\C=C\C=C(C)\C=C\C=C(/C)C(=O)[O-].[Na+].[Na+] [STC free drug, sodium trans-crocetinate]	no safety concerns	360	–	–
CC(/C=C/C=C(\C)C(=O)O)=C\C=C\C=C(C)\C=C\C=C(/C)C(=O)O [trans-crocetin]	–	–	30	stable levels
